Source: patent US9765037B2, “Compositions and methods for treating toxoplasmosis, cryptosporidiosis, and other apicomplexan protozoan related diseases” (University of Washington Through its Center for …, priority 2010, dated 2017)
Values after ≈ are worked out from the molar mass of the structure shown. Where two headings read alike, the source gives them in different places.

Experiments:
PfCDPK1 = PfCDPK1 (Plasmodium falciparum (isolate 3D7), UniProt P62344); test: biochemical
PfCDPK4 = PfCDPK4 (Plasmodium falciparum (isolate 3D7), UniProt Q8IBS5); test: biochemical
[1] = Solubility in buffers of various pH; assay type: physicochemical; conditions: pH 6.5, aqueous buffer, read-out: Experimental Solubility pH 6.5
TgCDPK1 = TgCDPK1 (Toxoplasma gondii, UniProt Q9BJF5); assay type: biochemical; conditions: read-out: IC50 (μM) TgCDPK1
CpCDPK1 = CpCDPK1 (Cryptosporidium parvum (strain Iowa II), UniProt A3FQ16); test: biochemical; assay type: biochemical; conditions: Table 8; read-out: IC50 (μM) CpCDPK1
[2] = tested on: human promyelocytic leukemia (HL-60); test: Growth inhibition of human cell line HL-60
[3] = tested on: human lymphocyte (CRL8155); test: Growth inhibition of human cell line CRL8155

TgCDPK1, sequence (Q9BJF5 1-507): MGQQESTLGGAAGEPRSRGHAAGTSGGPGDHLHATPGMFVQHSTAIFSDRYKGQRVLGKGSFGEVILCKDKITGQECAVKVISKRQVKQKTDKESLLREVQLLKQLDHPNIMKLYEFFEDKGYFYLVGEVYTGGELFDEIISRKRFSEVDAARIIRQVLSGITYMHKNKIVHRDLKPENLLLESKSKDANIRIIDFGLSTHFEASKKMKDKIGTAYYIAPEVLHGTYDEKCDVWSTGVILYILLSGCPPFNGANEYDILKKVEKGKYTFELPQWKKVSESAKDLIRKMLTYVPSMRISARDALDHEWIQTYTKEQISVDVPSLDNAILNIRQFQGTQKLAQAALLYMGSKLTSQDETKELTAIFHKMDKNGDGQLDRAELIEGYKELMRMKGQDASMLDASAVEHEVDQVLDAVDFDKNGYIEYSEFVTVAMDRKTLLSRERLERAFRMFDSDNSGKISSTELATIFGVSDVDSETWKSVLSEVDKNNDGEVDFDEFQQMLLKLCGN
CpCDPK1, sequence (A3FQ16 1-538): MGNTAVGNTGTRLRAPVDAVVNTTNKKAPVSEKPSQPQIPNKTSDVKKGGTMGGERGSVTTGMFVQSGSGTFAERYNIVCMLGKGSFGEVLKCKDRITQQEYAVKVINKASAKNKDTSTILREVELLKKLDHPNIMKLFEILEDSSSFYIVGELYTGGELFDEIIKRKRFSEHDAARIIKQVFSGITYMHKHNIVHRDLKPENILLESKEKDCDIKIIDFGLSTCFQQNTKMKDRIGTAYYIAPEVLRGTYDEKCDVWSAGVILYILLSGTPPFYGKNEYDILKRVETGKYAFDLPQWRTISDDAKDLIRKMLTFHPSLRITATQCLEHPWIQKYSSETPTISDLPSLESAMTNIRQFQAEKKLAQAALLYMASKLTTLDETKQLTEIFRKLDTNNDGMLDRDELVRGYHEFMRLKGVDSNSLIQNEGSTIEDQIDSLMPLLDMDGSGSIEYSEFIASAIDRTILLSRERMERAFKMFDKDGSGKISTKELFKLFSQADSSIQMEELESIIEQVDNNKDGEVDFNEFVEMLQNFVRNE

Compound	EC50 (PfCDPK1)	EC50 (PfCDPK4)	solubility ([1]; buffer)	further results
Nc1ncnc2c1c(-c1ccc(Cl)cc1)nn2CC1CCNCC1 [Compound 45, 3-(4-chlorophenyl)-1-(piperidin-4-ylmethyl)-1H-pyrazolo[3,4-d]pyrimidin-4-amine]	56.5 nM	350 nM	62 µM (≈ 21.3 µg/mL)	
CC(C)(C)n1nc(-c2ccc(NC(=O)Cc3ccccc3)cc2)c2c(N)ncnc21 [Compound 66, N-(4-(4-amino-1-tert-butyl-1H-pyrazolo[3,4-d]pyrimidin-3-yl)phenyl)-2-phenylacetamide]	287 nM	2180 nM		IC50 (TgCDPK1): 0.178 µM; IC50 (CpCDPK1): 2.02 µM
CCC(=O)Nc1ccc(-c2nn(C(C)(C)C)c3ncnc(N)c23)cc1 [Compound 67, N-(4-(4-amino-1-tert-butyl-1H-pyrazolo[3,4-d]pyrimidin-3-yl)phenyl)propionamide]	325 nM	1990 nM		IC50 (TgCDPK1): 0.196 µM; IC50 (CpCDPK1): 0.822 µM
Cn1ccc2cc(-c3nc(C(C)(C)C)n4ccnc(N)c34)ccc21 [Compound 70, 3-tert-butyl-1-(1-methyl-1H-indol-5-yl)imidazo[1,5-a]pyrazin-8-amine]	53.8 nM	83.4 nM	5 µM (≈ 1.6 µg/mL)	Cell Toxicity HL60, % at 10 μM [2]: 40% at 10 μM; Cell Toxicity CRL8155, % at 10 μM [3]: <30% at 10 μM
COc1ccc2cc(-c3nc(C(C)(C)C)n4ccnc(N)c34)ccc2c1 [Compound 71, 3-tert-butyl-1-(6-methoxynaphthalen-2-yl)imidazo[1,5-a]pyrazin-8-amine]	67.6 nM	65.2 nM	9 µM (≈ 3.12 µg/mL)	Cell Toxicity HL60, % at 10 μM [2]: <30% at 10 μM; Cell Toxicity CRL8155, % at 10 μM [3]: <30% at 10 μM
Cc1cc(-c2nn(CC3CCNCC3)c3ncnc(N)c23)ccc1-c1ccccc1 [Compound 118]	511 nM	512 nM	40 µM (≈ 15.9 µg/mL)	
Nc1ncnc2c1c(-c1ccc3ncccc3c1)nn2CC1CCNCC1 [Compound 125]	1090 nM	113 nM	54 µM (≈ 19.4 µg/mL)	
COc1ccc(-c2nn(C(C)(C)C)c3ncnc(N)c23)cc1C [Compound 132]	> 3000 nM	1490 nM	3.8 µM (≈ 1.18 µg/mL)	
Cc1cccc(-c2nn(C(C)(C)C)c3ncnc(N)c23)c1 [Compound 134]			19.3 µM (≈ 5.43 µg/mL)	
COc1ccc2cc(-c3nn(C(C)(C)C)c4ncnc(N)c34)ccc2c1 [Compound 135]	668 nM	137 nM	3 µM (≈ 1.04 µg/mL)	
CCOc1ccc2cc(-c3nn(C(C)(C)C)c4ncnc(N)c34)ccc2c1 [Compound 137]	2430 nM	942 nM	1 µM (≈ 0.361 µg/mL)	
CCOc1ccc2cc(-c3nn(C4CCNCC4)c4ncnc(N)c34)ccc2c1 [Compound 138]			51 µM (≈ 19.8 µg/mL)	
Cn1ccc2cc(-c3nn(C(C)(C)C)c4ncnc(N)c34)ccc21 [Compound 139]	1150 nM	566 nM	0.69 µM (≈ 0.221 µg/mL)	
Cn1ncc2cc(-c3nn(C(C)(C)C)c4ncnc(N)c34)ccc21 [Compound 142]	294 nM	94.7 nM	5.2 µM (≈ 1.67 µg/mL)	
CC(C)(C)n1nc(-c2ccc3ncccc3c2)c2c(N)ncnc21 [Compound 143]			17 µM (≈ 5.41 µg/mL)	
COc1ccc(-c2nn(CC3CCNCC3)c3ncnc(N)c23)cc1C [Compound 144]			60 µM (≈ 21.1 µg/mL)	
CC(C)(C)n1nc(-c2ccc(Cl)cc2)c2c(N)ncnc21 [Compound 146]				solubility [1]: 9 µM (≈ 2.72 µg/mL)
CCOc1ccc2cc(-c3nn(C4CCN(C)CC4)c4ncnc(N)c34)ccc2c1 [Compound 148]		39 nM	56 µM (≈ 22.5 µg/mL)	Cell Toxicity HL60, % at 10 μM [2]: <30% at 10 μM; Cell Toxicity HL60, % at 30 μM [2]: 49% at 30 μM;; Cell Toxicity CRL8155, % at 30 μM [3]: <30% at 30 μM
CCOc1ccc2cc(-c3nn(C4CCN(CC)CC4)c4ncnc(N)c34)ccc2c1 [Compound 149]		81.6 nM	75 µM (≈ 31.2 µg/mL)	Cell Toxicity HL60, % at 30 μM [2]: <30% at 30 μM; Cell Toxicity CRL8155, % at 10 μM [3]: <30% at 10 μM; Cell Toxicity CRL8155, % at 30 μM [3]: <30% at 30 μM
